Assay: Chemical stability (hydrolysis kinetics) of etanidazole in buffered solutions at 80° C.
Format: physicochemical
Conditions: for kobs, observed first-order rate constant: mean, n = 3
Experimental: The k values shown in Tables 1-5 and FIG. 1 should be multipled by a factor of 2.303 to provide the actual k value.
The chemical stability of etanidazole was evaluated in solutions of varying composition stored at 80° C. Etanidazole was placed into suitable containers and sufficient buffer was added to result in a 1 mg/ml solution. A constant ionic strength of 0.3 was maintained with potassium chloride. All solutions were prepared in triplicate. The solution was divided into 2 ml sealed glass vials and was placed into cardboard storage boxes to protect the compound from light. At appropriate intervals, samples were removed from the stability chamber and cooled to room temperature. An aliquot of the sample was diluted with mobile phase containing internal standard prior to HPLC analysis. For those pH conditions where degradation was rapid, the sample aliquot was immediately quenched to neutral pH and room temperature.
Data were analyzed using methods as described by Martin et al. in "Physical Pharmacy", 3rd ed, pp 352-395 (1983).
In the intermediate pH range where buffers were employed, the observed first-order rate constant can be defined at any given pH with the following equation;
[…] [H+]+ko +kOH- [OH-]+kB [BT ]
where kH+ and kOH- are the second-order specific acid and specifiic base catalysis rate constants, respectively kB is the second-order rate constant for the catalysis due to the buffer, and [BT ] is the total buffer concentration. Plotting kobs vs [BT ] yields a slope of kB and a y-intercept of kH+ [H+]+ko +kOH- [OH-], the observed rate constant extrapolated to zero buffer concentration (k'). The observed rate constant extrapolated to zero buffer concentration (k') are used to generate the pH-rate profile (FIG. 1).
The buffer systems permit pH control through the equilibrium of their acidic and basic forms. Utilizing these equilibria, the rate constants for the individual buffer species may be calculated. In the acetate buffers, the second-order rate constant for the catalysis due to the acetate buffer is defined as follows;
[…]
where ^f CH3 COOH is the fraction of the acetate buffer in the neutral form, ^k (CH3 COOH) is the second-order rate constant for the catalysis due to the acetic acid species, ^f CH3 COO- is the fraction of the acetate buffer in the ionized form and ^k CH3 COO- is the second-order rate constant for the catalysis due to the acetate anion. Employing the same buffer for various pH conditions permits the determination of the second-order rate constants for the various species (Table 3).

kobs, observed first-order rate constant (0.01M HCl pH 2.2, 80° C.): 0.00824 day⁻¹
kobs, observed first-order rate constant (0.013M Citrate pH 6.5, 80° C.): 0.0106 day⁻¹
kobs, observed first-order rate constant (0.02M Citrate pH 5.5, 80° C.): 0.00843 day⁻¹
kobs, observed first-order rate constant (0.025M Phosphate pH 6.5, 80° C.): 0.0195 day⁻¹
kobs, observed first-order rate constant (0.03M Citrate pH 6.5, 80° C.): 0.0119 day⁻¹
kobs, observed first-order rate constant (0.05M Acetate pH 4.0, 80° C.): 0.00119 day⁻¹
kobs, observed first-order rate constant (0.05M Acetate pH 5.0, 80° C.): 0.00386 day⁻¹
kobs, observed first-order rate constant (0.05M Borate pH 9.2, 80° C.): 0.0333 day⁻¹
kobs, observed first-order rate constant (0.05M Citrate pH 3.0, 80° C.): 0.00575 day⁻¹
kobs, observed first-order rate constant (0.05M Citrate pH 4.5, 80° C.): 0.00336 day⁻¹
kobs, observed first-order rate constant (0.05M Citrate pH 5.5, 80° C.): 0.00957 day⁻¹
kobs, observed first-order rate constant (0.05M Phosphate pH 6.5, 80° C.): 0.0135 day⁻¹
kobs, observed first-order rate constant (0.05M Phosphate pH 7.4, 80° C.): 0.0168 day⁻¹
kobs, observed first-order rate constant (0.065M Citrate pH 6.5, 80° C.): 0.0132 day⁻¹
kobs, observed first-order rate constant (0.1M Acetate pH 4.0, 80° C.): 0.00185 day⁻¹
kobs, observed first-order rate constant (0.1M Acetate pH 5.0, 80° C.): 0.00516 day⁻¹
kobs, observed first-order rate constant (0.1M Borate pH 9.2, 80° C.): 0.0382 day⁻¹
kobs, observed first-order rate constant (0.1M Citrate pH 3.0, 80° C.): 0.00882 day⁻¹
kobs, observed first-order rate constant (0.1M Citrate pH 4.5, 80° C.): 0.00587 day⁻¹
kobs, observed first-order rate constant (0.1M Citrate pH 5.5, 80° C.): 0.0101 day⁻¹
kobs, observed first-order rate constant (0.1M HCl pH 1.0, 80° C.): 0.0961 day⁻¹
kobs, observed first-order rate constant (0.1M NaOH pH 12.6, 80° C.): 13.1 day⁻¹
kobs, observed first-order rate constant (0.1M Phosphate pH 6.5, 80° C.): 0.0149 day⁻¹
kobs, observed first-order rate constant (0.1M Phosphate pH 7.4, 80° C.): 0.0187 day⁻¹
kobs, observed first-order rate constant (0.135M Phosphate pH 7.4, 80° C.): 0.0183 day⁻¹
kobs, observed first-order rate constant (0.18M Citrate pH 4.5, 80° C.): 0.00789 day⁻¹
kobs, observed first-order rate constant (0.25M Acetate pH 4.0, 80° C.): 0.00342 day⁻¹
kobs, observed first-order rate constant (0.25M Acetate pH 5.0, 80° C.): 0.00801 day⁻¹
kobs, observed first-order rate constant (0.25M Borate pH 9.2, 80° C.): 0.0596 day⁻¹
kobs, observed first-order rate constant (0.25M Citrate pH 3.0, 80° C.): 0.0197 day⁻¹
kobs, observed first-order rate constant (0.3M HCl pH 0.62, 80° C.): 0.263 day⁻¹
kobs, observed first-order rate constant (0.3M NaOH pH 13.1, 80° C.): 52.9 day⁻¹
k', first-order rate constant extrapolated to zero buffer concentration (Acetate pH 4.0, 80° C.): 0.000688 day⁻¹
kB, second-order rate constant for the buffer catalysis (Acetate pH 4.0, 80° C.): 1.27e-07 M⁻¹ s⁻¹
k', first-order rate constant extrapolated to zero buffer concentration (Acetate pH 5.0, 80° C.): 0.00296 day⁻¹
kB, second-order rate constant for the buffer catalysis (Acetate pH 5.0, 80° C.): 2.35e-07 M⁻¹ s⁻¹
kB, second-order rate constant for the buffer species (Acetic acid, 80° C.): 9.41e-08 M⁻¹ s⁻¹
kB, second-order rate constant for the buffer species (Acetic^-1, 80° C.): 3.17e-07 M⁻¹ s⁻¹
k', first-order rate constant extrapolated to zero buffer concentration (Borate pH 9.2, 80° C.): 0.0258 day⁻¹
kB, second-order rate constant for the buffer catalysis (Borate pH 9.2, 80° C.): 1.55e-06 M⁻¹ s⁻¹
k', first-order rate constant extrapolated to zero buffer concentration (Citrate pH 3.0, 80° C.): 0.00204 day⁻¹
kB, second-order rate constant for the buffer catalysis (Citrate pH 3.0, 80° C.): 8.15e-07 M⁻¹ s⁻¹
k', first-order rate constant extrapolated to zero buffer concentration (Citrate pH 4.5, 80° C.): 0.00197 day⁻¹
kB, second-order rate constant for the buffer catalysis (Citrate pH 4.5, 80° C.): 3.94e-07 M⁻¹ s⁻¹
k', first-order rate constant extrapolated to zero buffer concentration (Citrate pH 5.5, 80° C.): 0.00824 day⁻¹
kB, second-order rate constant for the buffer catalysis (Citrate pH 5.5, 80° C.): 2.29e-07 M⁻¹ s⁻¹
k', first-order rate constant extrapolated to zero buffer concentration (Citrate pH 6.5, 80° C.): 0.0102 day⁻¹
kB, second-order rate constant for the buffer catalysis (Citrate pH 6.5, 80° C.): 5.57e-07 M⁻¹ s⁻¹
kB, second-order rate constant for the buffer species (Citrate^-3, 80° C.): 9.4e-07 M⁻¹ s⁻¹
kB, second-order rate constant for the buffer species (Citric Acid, 80° C.): 1.03e-06 M⁻¹ s⁻¹
kB, second-order rate constant for the buffer species (Dihydrogen citrate^-1, 80° C.): 5.3e-07 M⁻¹ s⁻¹
kB, second-order rate constant for the buffer species (Dihydrogen phosphate^-1, 80° C.): 3.95e-07 M⁻¹ s⁻¹
kB, second-order rate constant for the buffer species (Hydrogen citrate^-2, 80° C.): 8.23e-08 M⁻¹ s⁻¹
kB, second-order rate constant for the buffer species (Hydrogen phosphate^-2, 80° C.): 1.17e-07 M⁻¹ s⁻¹
k', first-order rate constant extrapolated to zero buffer concentration (Phosphate pH 6.5, 80° C.): 0.0119 day⁻¹
kB, second-order rate constant for the buffer catalysis (Phosphate pH 6.5, 80° C.): 3.5e-07 M⁻¹ s⁻¹
k', first-order rate constant extrapolated to zero buffer concentration (Phosphate pH 7.4, 80° C.): 0.0161 day⁻¹
kB, second-order rate constant for the buffer catalysis (Phosphate pH 7.4, 80° C.): 2.2e-07 M⁻¹ s⁻¹
pH at which overall rate constant was minimum (hydrolysis, 80° C.): approximately 4
kinetics of hydrolysis (pH range of 0.6 to 12.6, 80° C.): apparent first-order kinetics
effect of concentration and ionic strength on stability (summary, 80° C.): negligible effects on the stability
Structure (SMILES): O=C(Cn1ccnc1[N+](=O)[O-])NCCO [Etanidazole]
primary route of degradation (analysis of degradation product, 80° C.): through the hydrolysis of the amide linkage
buffer catalysis of degradation (citrate and acetate at the pH minimum, 80° C.): Citrate and acetate were both catalytic at the pH minimum, with citrate being a stronger catalyst than acetate
